This assay concerns urease enzyme. In words: Testing Glycine Hydroxamate: ammonia odor of treated water loaded with urine and fecal matter. Conditions: for odor of ammonia: 0.04 grams in 200 ml water with bronopol, citric acid, sodium bicarbonate, sulfamic acid, fragrance, approximately 80° F., after 7 days. The method, then:
To each of two flask, 200 ml of distilled water was combined with 0.04 grams of bronopol, 0.04 grams of either acetylhydroxamic acid or 0.04 grams of glycine hydroxamate, 0.10 grams of citric acid, 0.023 grams sodium bicarbonate, 0.027 grams of sulfamic acid, and 0.04 grams of mulberry fragrance. To each sample, 9 ml of urine and 1.5 grams of fecal matter was added and swirled.

The values that follow come from patent US20150197433A1, “Compositions and methods for treating toilets” (Integrated Chemical Technologies, Inc., priority 2014, published 2015).

Turning to `CC(=O)NO` [acetylhydroxamic acid, reference compound], the odor of ammonia entry was “no detectable odor of ammonia”.

On to `NCC(=O)NO` [glycine hydroxamate], for which the odor of ammonia result is recorded as “no detectable odor of ammonia”. Further, the “performance compared with acetylhydroxamic acid” value (under test conditions) is “comparable to acetylhydroxamic acid”.
